The record followed here is patent publication US5948792A, “Fluorine-containing 1,4-disubstituted piperidine derivatives” (Banyu Pharmaceutical Co., Ltd., priority 1996, dated 1999).

One assay deals with T1, Muscarinic M3 Receptor (Rattus norvegicus, UniProt P08483).
T1 construct: male rats of the Sprague-Dawley strain; from tissue; host or cells: airways of living male Sprague-Dawley rats (in vivo)
The assay can be described thus: Bronchodilation in rats (i.v.), inhibition of acetylcholine-induced increase in airway resistance. It counts as in vivo. Conditions: iv, 5 min, acetylcholine 50 μg/kg i.v. 5 minutes after test compound, read-out: Inhibition of Airway Contraction ED50 iv. Here is the method:
Tests for Antagonism Against Muscarinic M3 Receptor (in vivo)
1-A) Tests for Bronchodilation in Rats (i.v.).
Eight- to eleven-weeks-old male rats of the Sprague-Dawley strain, weighing 380-420 g, were anesthetized with urethane (750 mg/kg. i.p.) and α-chloralose (37.5 mg/kg, i.p.). The bronchus of each rat was intubated, and the right jugular vein was cannulated for drug administration. […] To evoke an increase in airway resistance, acetylcholine (50 μg/kg, i.v.) was administered to the animals. The acetylcholine-induced airway resistance increase was measured 5 minutes before and 5 minutes after administration of test compound, and the ratio of the airway resistance of the latter to the former was calculated. In controls, isotonic sodium chloride solution was used in place of the test compounds and otherwise identical procedures were repeated, the calculated ratio being set to be 100%.

The target in another assay is T2, M2 receptor (Rattus norvegicus, UniProt P10980).
T2 construct: the right atrium was isolated; from tissue; host or cells: isolated right atrium of male SD strain rat
T2 sequence (P10980 1-466): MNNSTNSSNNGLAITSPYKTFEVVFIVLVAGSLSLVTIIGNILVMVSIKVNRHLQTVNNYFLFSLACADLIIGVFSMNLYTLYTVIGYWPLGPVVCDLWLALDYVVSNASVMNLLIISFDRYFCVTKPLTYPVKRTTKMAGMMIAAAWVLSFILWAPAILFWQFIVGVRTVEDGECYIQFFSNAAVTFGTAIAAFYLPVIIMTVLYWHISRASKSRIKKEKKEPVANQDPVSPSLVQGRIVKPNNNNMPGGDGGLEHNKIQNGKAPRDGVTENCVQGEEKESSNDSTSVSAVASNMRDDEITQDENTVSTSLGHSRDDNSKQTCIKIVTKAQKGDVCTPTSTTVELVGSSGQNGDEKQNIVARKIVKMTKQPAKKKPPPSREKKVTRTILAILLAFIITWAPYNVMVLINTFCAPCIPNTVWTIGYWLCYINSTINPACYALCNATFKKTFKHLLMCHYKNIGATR
The assay can be described thus: Antagonism to M2 receptor in an isolated rat right atrium (in vitro). It counts as cell-based. Conditions: carbachol-induced decrease in heart rate. Here is the method: Tests for Antagonism to Muscarinic Receptors (in vitro)
1) Tests for Antagonism to M2 receptor in an Isolated Rat Right Atrium
These tests were performed according to a conventional method. A male SD strain rat (weighing 300-500 g) was killed by exsanguination, and the right atrium was isolated. This preparation was isometrically suspended in organ bath filled with 20 ml of Krebs-Henseleit solution (gassed with 95% O2 -5% CO2 and kept at 32° C.) with an initial tension of 0.5 g. The heart rate was recorded with a heart rate counter. After the preparation was equilibrated for 30 minutes, carbachol (10^-9 to 10^-6 M) was cumulatively administered in three-fold increasing doses. Thus, a decrease in heart rate was measured to obtain a dose-response curve for the control experiment. After the preparation was washed with fresh solution to restore the heart rate, a test compound was administered thereto. Ten minutes later, carbachol was cumulatively administered again. Responses to carbachol were expressed as percentages based on the heart rate before administration of carbachol as 100%. The antagonistic potency (KB value) of the test compound was determined from the degree of shift of the dose-response curve obtained by treatment with individual test compound of the present invention.

In the next assay the target is T3, Muscarinic M2 receptor (Homo sapiens, UniProt P08172).
T3 construct: purchased Receptor Biology, Inc; host or cells: CHO cells (membranes)
T3 sequence (P08172 1-466): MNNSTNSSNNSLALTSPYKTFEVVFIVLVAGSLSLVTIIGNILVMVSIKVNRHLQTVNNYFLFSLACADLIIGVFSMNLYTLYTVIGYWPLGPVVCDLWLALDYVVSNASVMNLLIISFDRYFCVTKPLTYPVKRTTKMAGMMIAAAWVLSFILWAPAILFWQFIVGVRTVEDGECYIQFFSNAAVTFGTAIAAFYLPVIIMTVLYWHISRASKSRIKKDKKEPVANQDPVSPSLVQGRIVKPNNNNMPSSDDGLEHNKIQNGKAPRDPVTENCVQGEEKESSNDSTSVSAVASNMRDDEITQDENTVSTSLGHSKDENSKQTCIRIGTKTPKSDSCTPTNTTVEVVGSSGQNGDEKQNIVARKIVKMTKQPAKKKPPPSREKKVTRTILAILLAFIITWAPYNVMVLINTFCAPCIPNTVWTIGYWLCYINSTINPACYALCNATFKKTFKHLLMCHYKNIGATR
The assay can be described thus: Inhibition of binding of [3H]-N-methylscopolamine to muscarinic M2 receptor. Conditions: CHO cell membranes expressing cloned human receptor; 0.2 nM [3H]-N-methylscopolamine, pH 7.4, 2 hours, 25° C; read-out: Ki M2 (inhibitory effects on binding to muscarinic M2 receptor). Here is the method:
Tests on Inhibition of Binding to Muscarinic Receptors
These tests were performed according to a modification of the method of Hargreaves et al. (Br. J. Pharmacol. 107: 494-501, 1992). Membranes from CHO cells expressing cloned human m1-m5 (Receptor Biology, Inc.) were incubated with 0.2 nM [^3 H]-N-methylscopolamine and each a compound of the present invention to be tested in 0.5 ml of 50 mM Tris-HCl-10 mM MgCl2 -1 mM EDTA (pH 7.4) for 2 hours at 25° C. Free and membrane-bound [^3 H]-N-methylscopolamine were separated by filtration over glass filters (UniFilter-GF/C; Packard Instruments Co., Inc.) using cell harvester (Filtermate™ 196; Packard Instruments Co., Inc.). Then the filter was washed four times with 1 ml of ice-cold Tris-HCl (pH 7.4) and dried at 50° C. After adding a scintillator (Microscinti 0; Packard Instruments Co., Inc.), the radioactivity was counted by a liquid scintillation counter (TopCount™; Packard Instruments Co., Inc.). Non-specific binding was measured in the presence of 1 μM N-methylscopolamine.

T1 sequence (P08483 whole entry): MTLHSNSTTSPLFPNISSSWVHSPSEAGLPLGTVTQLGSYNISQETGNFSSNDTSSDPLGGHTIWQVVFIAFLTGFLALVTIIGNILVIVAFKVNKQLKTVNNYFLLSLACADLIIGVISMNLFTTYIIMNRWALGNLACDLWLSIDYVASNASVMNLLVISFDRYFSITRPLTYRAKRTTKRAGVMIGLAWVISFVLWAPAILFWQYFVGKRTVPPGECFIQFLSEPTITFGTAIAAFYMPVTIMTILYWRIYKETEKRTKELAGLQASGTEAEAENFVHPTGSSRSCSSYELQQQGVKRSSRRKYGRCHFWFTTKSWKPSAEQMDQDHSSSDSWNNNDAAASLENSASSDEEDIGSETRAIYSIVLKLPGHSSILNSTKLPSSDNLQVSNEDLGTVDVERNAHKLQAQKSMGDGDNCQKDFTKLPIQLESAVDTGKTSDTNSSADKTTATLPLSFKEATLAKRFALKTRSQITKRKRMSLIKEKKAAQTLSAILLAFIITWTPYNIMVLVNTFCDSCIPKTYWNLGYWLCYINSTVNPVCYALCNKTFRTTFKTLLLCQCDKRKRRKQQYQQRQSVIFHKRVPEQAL

A word on the ED50: it is the dose at which the effect has come halfway, by size or by number of responders. As a reminder, the Kb is the equilibrium dissociation constant of an antagonist, usually derived from a functional assay. A lower Kb goes with higher antagonist affinity. For orientation: Ki means a dissociation constant, usually derived from enzyme kinetics or from competition with a known ligand. For the compound `Cl.Cl.Nc1cccc(CN2CCC(NC(=O)[C@](O)(c3ccccc3)[C@@H]3CCC(F)(F)C3)CC2)n1` [Example 20, (2R)-N-[1-(6-aminopyridin-2-ylmethyl)piperidin-4-yl]-2-[(1R)-3,3-difluorocyclopentyl]-2-hydroxy-2-phenylacetamide dihydrochloride], the ED50 at Muscarinic M3 Receptor turned out to be 0.04 mg/kg. Besides, on M2 receptor, the Kb was 2100 nM. Besides, the Ki on Muscarinic M2 receptor is 550 nM.
Taken in the same sequence, the figures for `O=C(NC1CCN(Cc2ccsc2)CC1)[C@](O)(c1ccccc1)[C@@H]1CCC(F)(F)C1` [Example 11, (2R)-N-[1-(3-thienylmethyl)piperidin-4-yl]-2-[(1R)-3,3-difluorocyclopentyl]-2-hydroxy-2-phenylacetamide] were 0.032 mg/kg, 610 nM and 460 nM.
